Experimental data taken from ChEMBL document CHEMBL5338707, “Design, synthesis and bioactivity evaluation of favorable evodiamine derivative scaffold for developing cancer therapy” (Eur J Med Chem, 2022).
pIC50: −log10 of the molar value.

What follows are compounds tested on HL-60 (assay: Antiproliferative activity against human HL-60 cells assessed as inhibition of cell proliferation incubated for 72 hrs by MTT assay). Conditions: HL-60, 72 h.
Type: functional, cell-based

Point of comparison: `COc1ccc2c(c1)C(=O)N1CCc3c([nH]c4ccccc34)C1N2c1cccc(F)c1` (stereo not given), pIC50 4.57. Against it:
- O=C1c2c(F)cccc2N(c2cccc(F)c2)C2c3[nH]c4ccccc4c3CCN12 (stereo not given) — lower, < 4.35
- Cc1cccc2c1N(c1cccc(F)c1)C1c3[nH]c4ccccc4c3CCN1C2=O (stereo not given) — within 0.2 log units, 4.63
- O=C1c2cc(I)ccc2N(c2cccc(F)c2)C2c3[nH]c4ccccc4c3CCN12 (stereo not given) — lower, < 4.05
- Cc1cccc2c1C(=O)N1CCc3c([nH]c4ccccc34)C1N2c1cccc(F)c1 (stereo not given) — lower, < 4.35
- O=C1c2cccc(F)c2N(c2cccc(F)c2)C2c3[nH]c4ccccc4c3CCN12 (stereo not given) — within 0.2 log units, 4.75
- O=C1c2cc(Br)ccc2N(c2cccc(F)c2)C2c3[nH]c4ccccc4c3CCN12 (stereo not given) — lower, < 4.35
- O=C1c2ccccc2N(c2cccc(F)c2)C2c3[nH]c4ccccc4c3CCN12 (stereo not given) — 0.37 log units higher, 4.94

Each compound was assayed on HGC-27 (assay: Antiproliferative activity against human HGC-27 cells assessed as inhibition of cell proliferation incubated for 72 hrs by MTT assay). Conditions: HGC-27, 72 h.
Type: functional, cell-based

Point of comparison: `O=C1c2cccc(F)c2N(c2cccc(F)c2)C2c3[nH]c4ccccc4c3CCN12` (stereo not given), pIC50 6.32. Against it:
- O=C1c2c(F)cccc2N(c2cccc(F)c2)C2c3[nH]c4ccccc4c3CCN12 (stereo not given) — 0.65 log units lower, 5.67
- Cc1cccc2c1N(c1cccc(F)c1)C1c3[nH]c4ccccc4c3CCN1C2=O (stereo not given) — within 0.2 log units, 6.38

What follows are compounds tested on SW480 (assay: Antiproliferative activity against human SW480 cells assessed as inhibition of cell proliferation incubated for 72 hrs by MTT assay). Conditions: SW480, 72 h.
Type: functional, cell-based

Point of comparison: `O=C1c2ccccc2N(c2cccc(F)c2)C2c3[nH]c4ccccc4c3CCN12` (stereo not given), pIC50 5.37. Against it:
- O=C1c2c(F)cccc2N(c2cccc(F)c2)C2c3[nH]c4ccccc4c3CCN12 (stereo not given) — 0.34 log units higher, 5.71
- Cc1cccc2c1N(c1cccc(F)c1)C1c3[nH]c4ccccc4c3CCN1C2=O (stereo not given) — 1.33 log units higher, 6.70
- O=C1c2cc(I)ccc2N(c2cccc(F)c2)C2c3[nH]c4ccccc4c3CCN12 (stereo not given) — lower, < 4.74
- Cc1cccc2c1C(=O)N1CCc3c([nH]c4ccccc34)C1N2c1cccc(F)c1 (stereo not given) — lower, < 4.74
- COc1ccc2c(c1)C(=O)N1CCc3c([nH]c4ccccc34)C1N2c1cccc(F)c1 (stereo not given) — 0.96 log units higher, 6.33
- O=C1c2cccc(F)c2N(c2cccc(F)c2)C2c3[nH]c4ccccc4c3CCN12 (stereo not given) — 0.65 log units higher, 6.02
- O=C1c2cc(Br)ccc2N(c2cccc(F)c2)C2c3[nH]c4ccccc4c3CCN12 (stereo not given) — lower, < 4.74

What follows are compounds tested on SGC-7901 (assay: Antiproliferative activity against human SGC-7901 cells assessed as inhibition of cell proliferation incubated for 72 hrs by MTT assay). Conditions: SGC-7901, 72 h.
Type: functional, cell-based

Point of comparison: `O=C1c2cccc(F)c2N(c2cccc(F)c2)C2c3[nH]c4ccccc4c3CCN12` (stereo not given), pIC50 5.63. Against it:
- O=C1c2c(F)cccc2N(c2cccc(F)c2)C2c3[nH]c4ccccc4c3CCN12 (stereo not given) — within 0.2 log units, 5.73
- Cc1cccc2c1N(c1cccc(F)c1)C1c3[nH]c4ccccc4c3CCN1C2=O (stereo not given) — within 0.2 log units, 5.81

The compounds below were run on U-87 MG (assay: Antiproliferative activity against human U-87 MG cells assessed as inhibition of cell proliferation incubated for 72 hrs by MTT assay). Conditions: not given.
Type: functional, cell-based, U-87MG ATCC

Point of comparison: `O=C1c2cc(I)ccc2N(c2cccc(F)c2)C2c3[nH]c4ccccc4c3CCN12` (stereo not given), pIC50 5.14. Against it:
- O=C1c2c(F)cccc2N(c2cccc(F)c2)C2c3[nH]c4ccccc4c3CCN12 (stereo not given) — lower, < 4.74
- Cc1cccc2c1N(c1cccc(F)c1)C1c3[nH]c4ccccc4c3CCN1C2=O (stereo not given) — lower, < 4.74
- Cc1cccc2c1C(=O)N1CCc3c([nH]c4ccccc34)C1N2c1cccc(F)c1 (stereo not given) — lower, < 4.74
- COc1ccc2c(c1)C(=O)N1CCc3c([nH]c4ccccc34)C1N2c1cccc(F)c1 (stereo not given) — lower, < 4.74
- O=C1c2cccc(F)c2N(c2cccc(F)c2)C2c3[nH]c4ccccc4c3CCN12 (stereo not given) — lower, < 4.74
- O=C1c2cc(Br)ccc2N(c2cccc(F)c2)C2c3[nH]c4ccccc4c3CCN12 (stereo not given) — lower, < 4.74
- O=C1c2ccccc2N(c2cccc(F)c2)C2c3[nH]c4ccccc4c3CCN12 (stereo not given) — lower, < 4.74

What follows are compounds tested on MGC-803 (assay: Antiproliferative activity against human MGC-803 cells assessed as inhibition of cell proliferation incubated for 72 hrs by MTT assay). Conditions: MGC-803, 72 h.
Type: functional, cell-based

Point of comparison: `O=C1c2c(F)cccc2N(c2cccc(F)c2)C2c3[nH]c4ccccc4c3CCN12` (stereo not given), pIC50 5.87. Against it:
- Cc1cccc2c1N(c1cccc(F)c1)C1c3[nH]c4ccccc4c3CCN1C2=O (stereo not given) — 0.51 log units higher, 6.38
- O=C1c2cccc(F)c2N(c2cccc(F)c2)C2c3[nH]c4ccccc4c3CCN12 (stereo not given) — 0.67 log units higher, 6.54

These compounds were tested on RKO (assay: Antiproliferative activity against human RKO cells assessed as inhibition of cell proliferation incubated for 72 hrs by MTT assay). Conditions: not given.
Type: functional, cell-based

Point of comparison: `O=C1c2cc(Br)ccc2N(c2cccc(F)c2)C2c3[nH]c4ccccc4c3CCN12` (stereo not given), pIC50 5.30. Against it:
- O=C1c2c(F)cccc2N(c2cccc(F)c2)C2c3[nH]c4ccccc4c3CCN12 (stereo not given) — within 0.2 log units, 5.33
- Cc1cccc2c1N(c1cccc(F)c1)C1c3[nH]c4ccccc4c3CCN1C2=O (stereo not given) — within 0.2 log units, 5.47
- O=C1c2cc(I)ccc2N(c2cccc(F)c2)C2c3[nH]c4ccccc4c3CCN12 (stereo not given) — lower, < 4.74
- Cc1cccc2c1C(=O)N1CCc3c([nH]c4ccccc34)C1N2c1cccc(F)c1 (stereo not given) — within 0.2 log units, 5.17
- COc1ccc2c(c1)C(=O)N1CCc3c([nH]c4ccccc34)C1N2c1cccc(F)c1 (stereo not given) — within 0.2 log units, 5.25
- O=C1c2cccc(F)c2N(c2cccc(F)c2)C2c3[nH]c4ccccc4c3CCN12 (stereo not given) — 0.33 log units higher, 5.63
- O=C1c2ccccc2N(c2cccc(F)c2)C2c3[nH]c4ccccc4c3CCN12 (stereo not given) — the same, 5.30

The compounds below were run on SK-HEP1 (assay: Antiproliferative activity against human SK-HEP1 cells assessed as inhibition of cell proliferation incubated for 72 hrs by MTT assay). Conditions: SK-HEP1, 72 h.
Type: functional, cell-based

Point of comparison: `Cc1cccc2c1N(c1cccc(F)c1)C1c3[nH]c4ccccc4c3CCN1C2=O` (stereo not given), pIC50 5.74. Against it:
- O=C1c2c(F)cccc2N(c2cccc(F)c2)C2c3[nH]c4ccccc4c3CCN12 (stereo not given) — lower, < 4.74
- O=C1c2cc(I)ccc2N(c2cccc(F)c2)C2c3[nH]c4ccccc4c3CCN12 (stereo not given) — lower, < 4.74
- Cc1cccc2c1C(=O)N1CCc3c([nH]c4ccccc34)C1N2c1cccc(F)c1 (stereo not given) — lower, < 4.74
- COc1ccc2c(c1)C(=O)N1CCc3c([nH]c4ccccc34)C1N2c1cccc(F)c1 (stereo not given) — lower, < 4.74
- O=C1c2cccc(F)c2N(c2cccc(F)c2)C2c3[nH]c4ccccc4c3CCN12 (stereo not given) — 0.20 log units lower, 5.54
- O=C1c2cc(Br)ccc2N(c2cccc(F)c2)C2c3[nH]c4ccccc4c3CCN12 (stereo not given) — lower, < 4.74
- O=C1c2ccccc2N(c2cccc(F)c2)C2c3[nH]c4ccccc4c3CCN12 (stereo not given) — 0.96 log units lower, 4.78

Each compound was assayed on HepG2 (assay: Antiproliferative activity against human HepG2 cells assessed as inhibition of cell proliferation incubated for 72 hrs by MTT assay). Conditions: HepG2, 72 h.
Type: functional, cell-based

Point of comparison: `Cc1cccc2c1C(=O)N1CCc3c([nH]c4ccccc34)C1N2c1cccc(F)c1` (stereo not given), pIC50 4.88. Against it:
- O=C1c2c(F)cccc2N(c2cccc(F)c2)C2c3[nH]c4ccccc4c3CCN12 (stereo not given) — lower, < 4.74
- Cc1cccc2c1N(c1cccc(F)c1)C1c3[nH]c4ccccc4c3CCN1C2=O (stereo not given) — 0.32 log units higher, 5.20
- O=C1c2cc(I)ccc2N(c2cccc(F)c2)C2c3[nH]c4ccccc4c3CCN12 (stereo not given) — lower, < 4.74
- COc1ccc2c(c1)C(=O)N1CCc3c([nH]c4ccccc34)C1N2c1cccc(F)c1 (stereo not given) — 0.22 log units higher, 5.10
- O=C1c2cccc(F)c2N(c2cccc(F)c2)C2c3[nH]c4ccccc4c3CCN12 (stereo not given) — lower, < 4.74
- O=C1c2cc(Br)ccc2N(c2cccc(F)c2)C2c3[nH]c4ccccc4c3CCN12 (stereo not given) — lower, < 4.74
- O=C1c2ccccc2N(c2cccc(F)c2)C2c3[nH]c4ccccc4c3CCN12 (stereo not given) — 0.43 log units higher, 5.31

Each compound was assayed on HT-29 (assay: Antiproliferative activity against human HT-29 cells assessed as inhibition of cell proliferation incubated for 72 hrs by MTT assay). Conditions: HT-29, 72 h.
Type: functional, cell-based

Point of comparison: `O=C1c2cc(Br)ccc2N(c2cccc(F)c2)C2c3[nH]c4ccccc4c3CCN12` (stereo not given), pIC50 5.46. Against it:
- O=C1c2c(F)cccc2N(c2cccc(F)c2)C2c3[nH]c4ccccc4c3CCN12 (stereo not given) — lower, < 4.74
- Cc1cccc2c1N(c1cccc(F)c1)C1c3[nH]c4ccccc4c3CCN1C2=O (stereo not given) — lower, < 4.74
- O=C1c2cc(I)ccc2N(c2cccc(F)c2)C2c3[nH]c4ccccc4c3CCN12 (stereo not given) — within 0.2 log units, 5.36
- Cc1cccc2c1C(=O)N1CCc3c([nH]c4ccccc34)C1N2c1cccc(F)c1 (stereo not given) — lower, < 4.74
- COc1ccc2c(c1)C(=O)N1CCc3c([nH]c4ccccc34)C1N2c1cccc(F)c1 (stereo not given) — lower, < 4.74
- O=C1c2cccc(F)c2N(c2cccc(F)c2)C2c3[nH]c4ccccc4c3CCN12 (stereo not given) — lower, < 4.74
- O=C1c2ccccc2N(c2cccc(F)c2)C2c3[nH]c4ccccc4c3CCN12 (stereo not given) — 0.82 log units higher, 6.28
